Reference: article PMC12693764, “Antidepressant-like Effects of Garcinia nigrolineata Resin Extract in a Chronic Mild Stress Mouse Model: Modulation of Monoaminergic and HPA-Axis Pathways” (Plants, 2025)
Where a name gives a salt, the structure may show the parent alone.

Columns and labels:
[1] = test system: MAO-A; conditions: cited from earlier work; for selective MAO-A inhibition: GNR-E constituents, ref Previous studies
[2] = test system: CMS-induced anhedonia behavior; assay: Sucrose preference (consumption) test in CMS mice; assay type: in vivo, male ICR mice; conditions: imipramine 20 mg/kg p.o. daily, by week 4
Method: Five-week-old male ICR mice (15–20 g) were obtained from Nomura Siam International (Bangkok, Thailand) and acclimatized for seven days prior to experimentation. The study protocol adhered to the Guiding Principle for the Care and Use of Animals (NIH Publications #8-23, revised 2011) and was approved by the Animal Ethics Committee of Khon Kaen University (approval No. IACUC-KKU-121/64), complying with ARRIVE guideline 2.0. […] Behavioral experiments were conducted between 07:00 and 17:00 h. The CMS procedure, adapted from Willner, was applied to experimental mice over 48 days. Seventy-two mice were randomly assigned to six groups: a non-stress control group and four CMS-exposed groups for 6 weeks. […] The amount consumed each day was recorded and used to group the mice and establish the baseline sucrose consumption before initiating the chronic stress procedure. During the subsequent experimental period (week 1–6), sucrose consumption was measured weekly using the same deprivation and testing conditions under chronic stress. The weight of each mouse and the amount of sucrose solution consumed were recorded and calculated as the amount of sucrose intake g/kg body weight).

[3] = test system: serum corticosterone (CORT); assay: Serum corticosterone (CORT) ELISA in CMS mice; assay type: in vivo, male ICR mice; conditions: daily imipramine 20 mg/kg or GNR-E 50, 150 and 450 mg/kg, p < 0.001 vs vehicle-treated CMS group
Method: (§1) The CMS procedure, adapted from Willner, was applied to experimental mice over 48 days. Seventy-two mice were randomly assigned to six groups: a non-stress control group and four CMS-exposed groups for 6 weeks. Stressors included a tilted cage at 45° (12 h), restricted food access (five micro pellets, 1 h), empty bottle exposure (3 h), wet cage (200 mL water in 100 g sawdust bedding, 21 h), reversed light–dark cycle (36 h), intermittent sound (3 and 5 h), paired caging (2 h), and food/water deprivation (18 h), applied randomly weekly and repeated over 6 weeks (Figure 11). The non-stressed group was maintained under standard conditions.
Mice were randomly divided into six groups […]. The non-stress group received 0.5% sodium carboxymethylcellulose (SCMC; 1 mL/kg, p.o.), while the CMS group received 0.5% SCMC (1 mL/kg, p.o.). The CMS + imipramine (IMP) group was administered imipramine hydrochloride (20 mg/kg, p.o.), and the CMS + GNR-E groups received GNR-E at 50, 150, and 450 mg/kg (p.o.), respectively. All treatments were given daily for 3 weeks, starting on day 21, at 8:00 a.m., one hour before behavioral testing. […]
Corticosterone levels were measured using an enzyme-linked immunosorbent assay (ELISA) kit (ab108821, Abcam Ltd., Cambridge, Cambridgeshire, UK) following the manufacturer’s instructions. […]

[4] = test system: serotonin (5-HT); assay: Serotonin (5-HT) levels in frontal cortex and hippocampus of CMS mice; assay type: in vivo, male ICR mice; conditions: daily imipramine 20 mg/kg or GNR-E 450 mg/kg, vs vehicle-treated CMS group
Method: as §1
(§2) Mice were randomly divided into six groups (n = 15). The non-stress group received 0.5% sodium carboxymethylcellulose (SCMC; 1 mL/kg, p.o.), while the CMS group received 0.5% SCMC (1 mL/kg, p.o.). […]
Serotonin levels in mouse brain extracts were quantified using a modified fluorometric method.A 0.2 mL brain extract sample was mixed with 0.25 mL O-phthaldialdehyde (Sigma-Aldrich, St. Louis, MO, USA) and heated to 100 °C for 10 min to form a fluorophore. Levels were measured spectrofluorometrically at 340 nm (excitation) and 470 nm (emission) after cooling to room temperature. Concentrations were determined against a calibration curve (0, 25, 50, 100, 200, 300, 400 µg/mL) using the equation Y = AX + B, expressed as µg/mL.

[5] = test system: norepinephrine (NE); assay: Norepinephrine (NE) levels in frontal cortex and hippocampus of CMS mice; assay type: in vivo, male ICR mice; conditions: daily imipramine 20 mg/kg or GNR-E 450 mg/kg, vs vehicle-treated CMS group
Method: as §1, §2
Brain supernatant (0.2 mL) was combined with 0.1 mL sodium acetate buffer (pH 6.9), 0.05 mL HCl (0.4 M), and 0.1 mL iodine solution (0.1 M in ethanol) for oxidation. […] Excitation and emission spectra were recorded at 395 nm and 485 nm, respectively, using a calibrated spectrofluorometer. Norepinephrine concentrations were calculated from a standard curve (0, 50, 100, 140, 220, 280, 300 µg/mL) prepared in distilled water and butanol/HCl (1:2 ratio).

[6] = test system: SERT, 5-HT1A, 5-HT1B, 5-HT2A, 5-HT2C, and 5-HT7; assay: qPCR of serotonergic biomarker genes in frontal cortex and hippocampus of CMS mice; assay type: in vivo, male ICR mice
Description: The CMS procedure, adapted from Willner [4], was applied to experimental mice over 48 days. Seventy-two mice were randomly assigned to six groups: a non-stress control group and four CMS-exposed groups for 6 weeks.
The frontal cortex (FC) and hippocampus (HP) were dissected from the brain for serotonin (5-HT), norepinephrine (NE) level assessments, and RT-qPCR analyses.
Total RNA was extracted from frontal cortex (FC) and hippocampus (HP) using TRLzol® reagent (Thermo Fisher Scientific Inc., San Jose, CA, USA), with purity and quantity assessed via UV spectrophotometry. Complementary DNA (cDNA) was synthesized using 10 mM dNTP, 50 µM oligo (dT)12-13 primer, and SuperScript® III reverse transcriptase (200 U/µL) in a FlexCycler2 PCR Thermal Cycler (Analytik Jena, Thuringia, Germany). Single-stranded DNA was annealed to gene-specific primers (Pacific Science, Bangkok, Thailand) at optimized temperatures, followed by extension. Double-stranded DNA was quantified using SYBR Green master mix (Thermo Fisher Scientific Inc., San Jose, CA, USA) in a 20 µL reaction containing 2X SYBR Green PCR Master Mix, 10 nM of each primer, and 5 µL cDNA. […] Melting curve analysis was conducted post-amplification. Glyceraldehyde 3-phosphate dehydrogenase (GAPDH) mRNA served as the housekeeping gene, and fold differences were calculated using the 2^−∆∆CT method, incorporating standard deviation into the fold-difference calculation [30].

[7] = test system: NET, α2A, and α2C; assay: qPCR of noradrenergic biomarker genes in frontal cortex and hippocampus of CMS mice; assay type: in vivo, male ICR mice
Method: as §1
Mice were randomly divided into six groups (n = 15). The non-stress group received 0.5% sodium carboxymethylcellulose (SCMC; 1 mL/kg, p.o.), while the CMS group received 0.5% SCMC (1 mL/kg, p.o.). The CMS + imipramine (IMP) group was administered imipramine hydrochloride (20 mg/kg, p.o.), and the CMS + GNR-E groups received GNR-E at 50, 150, and 450 mg/kg (p.o.), respectively. All treatments were given daily for 3 weeks, starting on day 21, at 8:00 a.m., one hour before behavioral testing.
Following behavioral tests, mice were anesthetized with […] (Nembutal®, Ceva Sante Animal, Libourne, France) at 60 mg/kg (i.p.) and decapitated. Blood and brain samples were collected immediately. Blood was centrifuged at 3000 rpm at 21 °C for 20 min to obtain serum for ELISA analysis. […]
(§3) Total RNA was extracted from frontal cortex (FC) and hippocampus (HP) using TRLzol® reagent (Thermo Fisher Scientific Inc., San Jose, CA, USA), with purity and quantity assessed via UV spectrophotometry. […] Double-stranded DNA was quantified using SYBR Green master mix (Thermo Fisher Scientific Inc., San Jose, CA, USA) in a 20 µL reaction containing 2X SYBR Green PCR Master Mix, 10 nM of each primer, and 5 µL cDNA. […] Glyceraldehyde 3-phosphate dehydrogenase (GAPDH) mRNA served as the housekeeping gene, and fold differences were calculated using the 2^−∆∆CT method, incorporating standard deviation into the fold-difference calculation.

[8] = test system: glucocorticoid receptor (GR) and serum/glucocorticoid-regulated kinase-1 (SGK-1); assay: qPCR of HPA-axis genes in frontal cortex and hippocampus of CMS mice; assay type: in vivo, male ICR mice; conditions: FC and HP, daily imipramine or GNR-E 50, 150, 450 mg/kg, vs vehicle-treated CMS group
Method: as §1
Mice were randomly divided into six groups (n = 15). […]
as §3

[9] = test system: depressive-like behaviors; assay: Chronic mild stress (CMS) mouse model of depression, behaviours overall; assay type: in vivo, male ICR mice; conditions: CMS mice, oral GNR-E 50, 150, 450 mg/kg/day, imipramine 20 mg/kg/day
Method: as §1, with “conditions. Mice were randomly divided into six groups […]. The non-stress group received 0.5% sodium carboxymethylcellulose (SCMC; 1 mL/kg, p.o.), while the CMS group received 0.5% SCMC (1 mL/kg, p.o.). […] All treatments were given daily for 3 weeks, starting on day 21, at 8:00 a.m., one hour before behavioral testing.” for “conditions.”

[10] = test system: MAO-B; conditions: cited from earlier work; for MAO-B inhibition (targeting): GNR-E constituents, ref Previous studies
[11] = test system: immobility; design: method as in Sahu et al.; conditions: α-mangostin from G. mangostana, by elevating 5-HT; ref Sahu et al.; cited from earlier work
[12] = test system: antidepressant-like properties; conditions: through monoaminergic modulation; cited from earlier work
[13] = FC and HP, imipramine, GNR-E 150–450 mg/kg
[14] = imipramine, GNR-E 150–450 mg/kg

xanthochymusxanthone A
selective MAO-A inhibition [1]: selectively inhibiting MAO-A

CN(C)CCCN1c2ccccc2CCc2ccccc21 [imipramine, imipramine hydrochloride]
sucrose intake (2% sucrose solution) [2]: significant increase in sucrose intake | serum CORT levels [3]: significantly reduced these elevated CORT levels | 5-HT levels in frontal cortex and hippocampus [4]: significantly restored 5-HT and NE levels | NE levels in frontal cortex and hippocampus [5]: significantly restored 5-HT and NE levels | CMS-induced upregulation of serotonergic biomarker genes (SERT, 5-HT1A, 5-HT1B, 5-HT2A, 5-HT2C, 5-HT7) ([6]; FC and HP, daily imipramine 20 mg/kg or GNR-E 50, 150, 450 mg/kg, vs vehicle-treated CMS group): significantly reduced these elevations | CMS-increased 5-HT1A and 5-HT1B mRNA expression ([6]; FC and HP, imipramine, GNR-E 450 mg/kg): reversed | CMS-upregulated SERT mRNA expression [6, 13]: reversed | CMS-elevated 5-HT2A, 5-HT2C, and 5-HT7 receptor expression [6, 14]: mitigated | CMS-increased expression of noradrenergic genes (NET, α2A, α2C) ([7]; FC and HP, daily imipramine or GNR-E, highest dose greatest effect): significantly attenuated | CMS-upregulated NET mRNA expression [7, 13]: reversed | CMS-upregulated α2A and α2C receptor expression [7, 14]: reversed | CMS-induced changes in SGK-1 (increased) and GR (decreased) mRNA levels [8]: significantly reversed these changes | depressive-like behaviors [9]: significantly improved depressive-like behaviors

cowaxanthone
selective MAO-A inhibition [1]: selectively inhibiting MAO-A

COc1c(O)cc2oc3cc(O)c(CC=C(C)C)c(O)c3c(=O)c2c1CC=C(C)C [α-mangostin]
MAO-B inhibition (targeting) [10]: targeting MAO-B | MAO-B inhibition, relative strength ([10]; ref Our previous study): stronger MAO-B inhibition | immobility [11]: reducing immobility | antidepressant-like properties [12]: antidepressant-like properties

COc1c(O)cc2oc3cc(O)c(CC=C(C)C)c(O)c3c(=O)c2c1C/C=C(\C)CCC=C(C)C [cowanin]
selective MAO-A inhibition [1]: selectively inhibiting MAO-A | MAO-A inhibition, rank among constituents ([1]; ref Our previous study): most potent toward MAO-A

cowagarcinone A
selective MAO-A inhibition [1]: selectively inhibiting MAO-A

COc1cc2oc3cc(O)c(CC=C(C)C)c(O)c3c(=O)c2c(CC=C(C)C)c1OC [cowaxanthone B]
MAO-B inhibition (targeting) [10]: targeting MAO-B
